In PMC6366420, “Design and synthesis of 4-piperazinyl quinoline derived urea/thioureas for anti-breast cancer activity by a hybrid pharmacophore approach” (Journal of Enzyme Inhibition and Medicinal Chemistry, 2019):
Where two headings read alike, the source gives them in different places.

Tests used:
MDA-MB468 = assay: SRB antiproliferative assay, MDA-MB468; format: cell-based, human; details: read-out: GI50 MDA-MB468
Procedure: (§1) The human breast cancer cell lines MDA-MB468, MDA-MB231 and MCF-7 were purchased from ATCC and maintained in RPMI 1640 medium supplemented with 10% fetal bovine serum (Hyclone, Logan UT) and 2 mM L-glutamine. MCF10A and 184B5 immortalised breast cells were purchased from ATCC and maintained in mammary epithelial basal medium supplemented with an MEGM mammary epithelial singlequot kit (Cambrex). Cells were grown at 37 °C with 5% CO2, 95% air under the humidified conditions. Cell line authentication was carried out by Genetica DNA Laboratories (Burlington, NC) using a short tandem repeat profiling method (March 2015; July 2015; September 2016).
(§2) Cell cytotoxic effects were determined by a SRB-based protocol[2]^,[25].
(§3) The newly synthesised 4-piperazinylquinoline compounds (5–30) were evaluated for their antiproliferative effects using three breast cancer cell lines, for which the compounds were diluted to achieve seven different concentrations ranging from […]. Followed by 48 h incubation with the compound, cells were treated with sulforhodamine B (SRB) to measure their growth/viability (% of the untreated control) by spectrophotometer. The total cellular macromolecules levels known to accurately reflect by UV reading of SRB staining. […] The reference compounds CQ and cisplatin were included for the comparison.

MCF7 = assay: SRB antiproliferative assay, MCF7; format: cell-based, human; details: read-out: GI50 MCF7
Procedure: as §1, §2, §3

MCF10A = assay: SRB antiproliferative assay, MCF10A non-cancer breast cells; format: cell-based, human; details: read-out: GI50 MCF10A
Procedure: as §1, §2, §3
(§4) We further assessed their antiproliferative effects on two non-cancer immortalised cell lines (184B5 and MCF10A). […] The antiproliferative effects of compound 23 on cancer cells are thus 7-fold (MDA-MB468 vs MCF10A) to 11-fold (MDA-MB231 vs 184B5) higher than matching non-cancer breast cells, which may indicate that compound 23 could potentially be safer than other compounds. Therefore, we examined it further to gain insights into its molecular mechanism of action.

184B5 = assay: SRB antiproliferative assay, 184B5 non-cancer breast cells; format: cell-based, human; details: read-out: GI50 184B5
Procedure: as §1, §2, §3, §4

[1] = test system: breast cancer and non-cancer breast cell lines; assay: SRB antiproliferative comparison of breast cancer and non-cancer breast cell lines; format: cell-based, human; details: for antigrowth effect against cancer versus non-cancer cells (in words): three breast cancer lines vs 184B5 and MCF10A
Procedure: as §1, §2, §3, §4

MDA-MB231 = assay: SRB antiproliferative assay, MDA-MB231; format: cell-based, human; details: read-out: GI50 MDA-MB231
Procedure: as §1, §2, §3

[2] = Homo sapiens, MDA-MB-468, 48 h, SRB, 48 h incubation, MDA-MB468 breast cancer cells
[3] = Homo sapiens, SRB, 48 h incubation, MCF7 breast cancer cells
[4] = Homo sapiens, MCF-10A, SRB, 48 h incubation, MCF10A non-cancer immortalised breast cells
[5] = Homo sapiens, SRB, 48 h incubation, 184B5 non-cancer immortalised breast cells
[6] = Homo sapiens, MDA-MB-231, 48 h, SRB, 48 h incubation, MDA-MB231 triple-negative breast cancer cells

Structure (SMILES) | GI50 (MDA-MB468; [2]) [µM] | GI50 (MCF7; [3]) [µM] | GI50 (MCF10A; [4]) [µM] | GI50 (184B5; [5]) [µM] | antigrowth effect against cancer versus non-cancer cells (in words) [1] | GI50 (MDA-MB231; [6]) [µM] | melting point [°C] | GI50 (MDA-MB468; Homo sapiens, MDA-MB-468, 48 h) [µM] | GI50 (MCF7; Homo sapiens, MCF7, 48 h) [µM] | GI50 (MCF10A; Homo sapiens, MCF-10A, 48 h) [µM] | GI50 (184B5; Homo sapiens, 184B5, 48 h) [µM] | GI50 (MDA-MB231; Homo sapiens, MDA-MB-231, 48 h) [µM] | higher activity than the reference compounds cisplatin and CQ ([1]; breast cancer cell lines, GI50 comparison) | GI50 (MDA-MB468; SRB, 48 h incubation, MDA-MB468 breast cancer cells) [µM] | GI50 (MCF7; SRB, 48 h incubation, MCF7 breast cancer cells) [µM] | GI50 (MCF10A; SRB, 48 h incubation, MCF10A non-cancer immortalised breast cells) [µM] | GI50 (184B5; SRB, 48 h incubation, 184B5 non-cancer immortalised breast cells) [µM] | GI50 (MDA-MB231; SRB, 48 h incubation, MDA-MB231 triple-negative breast cancer cells) [µM]
FC(F)(F)c1ccc2c(N3CCN(C(=S)Nc4ccc(Cl)cc4)CC3)ccnc2c1 [Compound 27, 4-(7-Trifluoromethyl-quinolin-4-yl)-piperazine-1-carbothioic acid (4-chloro-phenyl)-amide] | 11.8 ± 1.6 | 7 ± 0.7 | 9.2 ± 1 | 7.9 ± 0.6 | comparable against cancer and non-cancer cells | 18.7 ± 2.3 | 165 to 166 | – | – | – | – | – | – | – | – | – | – | –
O=C(NC1CCCCC1)N1CCN(c2ccnc3cc(Cl)ccc23)CC1 [Compound 10, 4-(7-Chloro-quinolin-4-yl)-piperazine-1-carboxylic acid cyclohexylamide] | 10.9 ± 0.8 | 6 ± 0.5 | 15.7 ± 1.3 | 16.3 ± 1 | comparable against cancer and non-cancer cells | 20.8 ± 1.3 | 112 to 113 | – | – | – | – | – | – | – | – | – | – | –
FC(F)(F)c1ccc2c(N3CCN(C(=S)Nc4c(Cl)cc(Cl)cc4Cl)CC3)ccnc2c1 [Compound 28, 4-(7-Trifluoromethyl-quinolin-4-yl)-piperazine-1-carbothioic acid (2,4,6-trichloro-phenyl)-amide] | 23.4 ± 1.9 | 11.8 ± 1 | 8.2 ± 0.7 | 5.5 ± 0.5 | higher activity against non-cancer cells than cancer cells | 12.2 ± 0.9 | 112 to 114 | – | – | – | – | – | – | – | – | – | – | –
FC(F)(F)c1ccc2c(N3CCN(C(=S)Nc4ccccc4)CC3)ccnc2c1 [Compound 24, 4-(7-Trifluoromethyl-quinolin-4-yl)-piperazine-1-carbothioic acid phenylamide] | 14.1 ± 0.9 | 7.5 ± 0.6 | 34.2 ± 1.3 | 24.4 ± 2 | much stronger activities against cancer than non-cancer cells | 13.8 ± 0.8 | 187 to 188 | – | – | – | – | – | – | – | – | – | – | –
S=C(Nc1ccccc1)N1CCN(c2ccnc3cc(Cl)ccc23)CC1 [Compound 17, 4-(7-Chloro-quinolin-4-yl)-piperazine-1-carbothioic acid phenylamide] | 11.8 ± 0.6 | 4.9 ± 0.3 | 13.9 ± 1.3 | 19.2 ± 1.6 | much stronger activities against cancer than non-cancer cells | 4.8 ± 0.2 | 171 to 172 | – | – | – | – | – | – | – | – | – | – | –
CCN(CC)CCCC(C)Nc1ccnc2cc(Cl)ccc12 (stereo not shown) [CQ, Chloroquine, reference compound] | – | – | – | – | – | – | – | 28.6 ± 0.2 | 38.4 ± 0.3 | 81.3 ± 1.4 | 76.1 ± 0.2 | 22.5 ± 1.4 | – | – | – | – | – | –
S=C(Nc1cccc2ccccc12)N1CCN(c2ccnc3cc(Cl)ccc23)CC1 [Compound 22, 4-(7-Chloro-quinolin-4-yl)-piperazine-1-carbothioic acid naphthalen-1-ylamide] | 10 ± 0.9 | 30.1 ± 1.2 | 13.3 ± 1 | 17.8 ± 0.6 | comparable against cancer and non-cancer cells | 19.8 ± 1.1 | 107 to 108 | – | – | – | – | – | – | – | – | – | – | –
S=C(Nc1c(Cl)cc(Cl)cc1Cl)N1CCN(c2ccnc3cc(Cl)ccc23)CC1 [Compound 21, 4-(7-Chloro-quinolin-4-yl)-piperazine-1-carbothioic acid (2,4,6-trichloro-phenyl)-amide] | 5.1 ± 0.2 | 4 ± 0.3 | 6.8 ± 0.6 | 4.7 ± 0.3 | comparable against cancer and non-cancer cells | 7.7 ± 0.5 | 132 to 133 | – | – | – | – | – | – | – | – | – | – | –
O=C(Nc1cccc2ccccc12)N1CCN(c2ccnc3cc(C(F)(F)F)ccc23)CC1 [Compound 15, 4-(7-Trifluoromethyl-quinolin-4-yl)-piperazine-1-carboxylic acid naphthalen-1-ylamide] | 9.6 ± 0.9 | 7.5 ± 0.6 | 11.1 ± 0.9 | 27.9 ± 1.7 | comparable against cancer and non-cancer cells | 17.8 ± 1 | 127 to 128 | – | – | – | – | – | – | – | – | – | – | –
O=C(Nc1ccccc1)N1CCN(c2ccnc3cc(Cl)ccc23)CC1 [Compound 5, 4-(7-Chloro-quinolin-4-yl)-piperazine-1-carboxylic acid phenylamide] | 4.7 ± 0.5 | 6.6 ± 0.6 | 11.8 ± 1.4 | 14.1 ± 0.9 | much stronger activities against cancer than non-cancer cells | 5.3 ± 0.5 | 142 to 143 | – | – | – | – | – | 4-8 fold | – | – | – | – | –
FC(F)(F)c1ccc(NC(=S)N2CCN(c3ccnc4cc(C(F)(F)F)ccc34)CC2)cc1 [Compound 26, 4-(7-Trifluoromethyl-quinolin-4-yl)-piperazine-1-carbothioic acid (4-trifluoromethyl-phenyl)-amide] | 23.4 ± 0.9 | 3.8 ± 0.3 | 10.7 ± 2 | 8.8 ± 0.6 | comparable against cancer and non-cancer cells | 16.5 ± 1.2 | 123 to 124 | – | – | – | – | – | – | – | – | – | – | –
O=C(Nc1c(Cl)cc(Cl)cc1Cl)N1CCN(c2ccnc3cc(Cl)ccc23)CC1 [Compound 8, 4-(7-Chloro-quinolin-4-yl)-piperazine-1-carboxylic acid (2,4,6-trichloro-phenyl)-amide] | 30.4 ± 2 | 23.7 ± 2.4 | 23.7 ± 1 | 22.3 ± 1.7 | comparable against cancer and non-cancer cells | 29.1 ± 1.7 | 168 to 169 | – | – | – | – | – | – | – | – | – | – | –
O=C(Nc1ccc(C(F)(F)F)cc1)N1CCN(c2ccnc3cc(Cl)ccc23)CC1 [Compound 7, 4-(7-Chloro-quinolin-4-yl)-piperazine-1-carboxylic acid (4-trifluoromethyl-phenyl)-amide] | 19.8 ± 0.8 | 16.6 ± 1.2 | 4.6 ± 0.3 | 4.7 ± 0.3 | higher activity against non-cancer cells than cancer cells | 21.8 ± 1.5 | – | – | – | – | – | – | – | – | – | – | – | –
N.N.[Cl][Pt][Cl] [Cisplatin, reference compound] | – | – | – | – | – | – | – | – | – | – | – | – | – | 31 ± 0.3 | 25.8 ± 0.7 | 51.5 ± 0.6 | 25.5 ± 0.6 | 23.6 ± 0.2
